System: IGROV1 complex spheroids (HUVEC, MSC), viability % test/control
Test: Anticancer human tumor IGROV1 cell line growth inhibition [GQUAD];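 note: spheroids exposed to compounds for 7 days before readout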;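 for viability, T/C: 100% = DMSO vehicle control viability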
Details: for IC50: curve of first compound; for viability, T/C: stronger effect = lower value
Method in brief: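 Tumor cells were grown as complex spheroids with HUVEC endothelial cells and mesenchymal stem cells as stroma. G-quadruplex stabilizers were combined with targeted agents over half-log dilutions from near the clinical Cmax, or from 10 microM.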

[1] = second compound 0.0316 µM, first compound 0.0316 µM
[2] = second compound 0.0316 µM, first compound 0.1 µM
[3] = second compound 0.0316 µM, first compound 0.316 µM
[4] = second compound 0.0316 µM, first compound 1 µM
[5] = second compound 0.0316 µM, first compound 3.16 µM
[6] = second compound 0.0316 µM, first compound 10 µM
[7] = second compound 0.1 µM, first compound 0.0316 µM
[8] = second compound 0.1 µM, first compound 0.1 µM
[9] = second compound 0.1 µM, first compound 0.316 µM
[10] = second compound 0.1 µM, first compound 1 µM
[11] = second compound 0.1 µM, first compound 3.16 µM
[12] = second compound 0.1 µM, first compound 10 µM
[13] = second compound 0.316 µM, first compound 0.0316 µM
[14] = second compound 0.316 µM, first compound 0.1 µM
[15] = second compound 0.316 µM, first compound 0.316 µM
[16] = second compound 0.316 µM, first compound 1 µM
[17] = second compound 0.316 µM, first compound 3.16 µM
[18] = second compound 0.316 µM, first compound 10 µM
[19] = second compound 1 µM, first compound 0.0316 µM
[20] = second compound 1 µM, first compound 0.1 µM
[21] = second compound 1 µM, first compound 0.316 µM
[22] = second compound 1 µM, first compound 1 µM
[23] = second compound 1 µM, first compound 3.16 µM
[24] = second compound 1 µM, first compound 10 µM
[25] = second compound 3.16 µM, first compound 0.0316 µM
[26] = second compound 3.16 µM, first compound 0.1 µM
[27] = second compound 3.16 µM, first compound 0.316 µM
[28] = second compound 3.16 µM, first compound 1 µM
[29] = second compound 3.16 µM, first compound 3.16 µM
[30] = second compound 3.16 µM, first compound 10 µM
[31] = second compound 10 µM, first compound 0.0316 µM
[32] = second compound 10 µM, first compound 0.1 µM
[33] = second compound 10 µM, first compound 0.316 µM
[34] = second compound 10 µM, first compound 1 µM
[35] = second compound 10 µM, first compound 3.16 µM
[36] = second compound 10 µM, first compound 10 µM

## Cc1cccc(N(C)C(=O)C2C(O)CCN2c2nc(C)cc(C(F)(F)F)c2C#N)c1 (stereo not drawn) + Cc1cnc(CNC(=O)c2c(=O)c3ccc(N4CCCN(C)CC4)nc3n3c2sc2ccccc23)cn1
Second compound 0.0316 µM
  IC50: > 10000 nM
Second compound 0.1 µM
  IC50: < 31.6 nM
Second compound 0.316 µM
  IC50: < 31.6 nM
Second compound 1 µM
  IC50: < 31.6 nM
Second compound 3.16 µM
  IC50: < 31.6 nM
Second compound 10 µM
  IC50: < 31.6 nM
[1]
  viability, T/C: 66.2%
[2]
  viability, T/C: 68%
[3]
  viability, T/C: 65.6%
[4]
  viability, T/C: 42%
[5]
  viability, T/C: 76.5%
[6]
  viability, T/C: 63%
[7]
  viability, T/C: 45.2%
[8]
  viability, T/C: 38.2%
[9]
  viability, T/C: 38.2%
[10]
  viability, T/C: 31.6%
[11]
  viability, T/C: 39.6%
[12]
  viability, T/C: 34.5%
[13]
  viability, T/C: 24.8%
[14]
  viability, T/C: 23.1%
[15]
  viability, T/C: 20.6%
[16]
  viability, T/C: 26.8%
[17]
  viability, T/C: 29.3%
[18]
  viability, T/C: 17.3%
[19]
  viability, T/C: 12.8%
[20]
  viability, T/C: 9.76%
[21]
  viability, T/C: 20.4%
[22]
  viability, T/C: 14.9%
[23]
  viability, T/C: 21.1%
[24]
  viability, T/C: 17.1%
[25]
  viability, T/C: 11.1%
[26]
  viability, T/C: 11.2%
[27]
  viability, T/C: 13.9%
[28]
  viability, T/C: 12.8%
[29]
  viability, T/C: 13.4%
[30]
  viability, T/C: 10.1%
[31]
  viability, T/C: 8.57%
[32]
  viability, T/C: 9.75%
[33]
  viability, T/C: 7.75%
[34]
  viability, T/C: 10.5%
[35]
  viability, T/C: 14.8%
[36]
  viability, T/C: 11.7%

## Cn1ncnc1[C@H]1c2n[nH]c(=O)c3cc(F)cc(c23)N[C@@H]1c1ccc(F)cc1 + Cc1cnc(CNC(=O)c2c(=O)c3ccc(N4CCCN(C)CC4)nc3n3c2sc2ccccc23)cn1
Second compound 0.0316 µM
  IC50: 21.9 nM
Second compound 0.1 µM
  IC50: < 0.999 nM
Second compound 0.316 µM
  IC50: < 0.999 nM
Second compound 1 µM
  IC50: < 0.999 nM
Second compound 3.16 µM
  IC50: < 0.999 nM
Second compound 10 µM
  IC50: < 0.999 nM
Second compound 0.0316 µM, first compound 0.000999 µM
  viability, T/C: 73.9%
Second compound 0.0316 µM, first compound 0.00316 µM
  viability, T/C: 67.1%
Second compound 0.0316 µM, first compound 0.00999 µM
  viability, T/C: 60%
[1]
  viability, T/C: 41%
Second compound 0.0316 µM, first compound 0.0999 µM
  viability, T/C: 38.5%
[3]
  viability, T/C: 19.3%
Second compound 0.1 µM, first compound 0.000999 µM
  viability, T/C: 44.2%
Second compound 0.1 µM, first compound 0.00316 µM
  viability, T/C: 34.8%
Second compound 0.1 µM, first compound 0.00999 µM
  viability, T/C: 30.9%
[7]
  viability, T/C: 21.6%
Second compound 0.1 µM, first compound 0.0999 µM
  viability, T/C: 21.6%
[9]
  viability, T/C: 19%
Second compound 0.316 µM, first compound 0.000999 µM
  viability, T/C: 29.5%
Second compound 0.316 µM, first compound 0.00316 µM
  viability, T/C: 18.9%
Second compound 0.316 µM, first compound 0.00999 µM
  viability, T/C: 20.2%
[13]
  viability, T/C: 16.8%
Second compound 0.316 µM, first compound 0.0999 µM
  viability, T/C: 16.5%
[15]
  viability, T/C: 12.4%
Second compound 1 µM, first compound 0.000999 µM
  viability, T/C: 17.3%
Second compound 1 µM, first compound 0.00316 µM
  viability, T/C: 11%
Second compound 1 µM, first compound 0.00999 µM
  viability, T/C: 14.8%
[19]
  viability, T/C: 14%
Second compound 1 µM, first compound 0.0999 µM
  viability, T/C: 12.7%
[21]
  viability, T/C: 12.1%
Second compound 3.16 µM, first compound 0.000999 µM
  viability, T/C: 11.3%
Second compound 3.16 µM, first compound 0.00316 µM
  viability, T/C: 8.42%
Second compound 3.16 µM, first compound 0.00999 µM
  viability, T/C: 10.4%
[25]
  viability, T/C: 13.2%
Second compound 3.16 µM, first compound 0.0999 µM
  viability, T/C: 9.17%
[27]
  viability, T/C: 7.53%
Second compound 10 µM, first compound 0.000999 µM
  viability, T/C: 8.16%
Second compound 10 µM, first compound 0.00316 µM
  viability, T/C: 10%
Second compound 10 µM, first compound 0.00999 µM
  viability, T/C: 10.5%
[31]
  viability, T/C: 9.96%
Second compound 10 µM, first compound 0.0999 µM
  viability, T/C: 10.5%
[33]
  viability, T/C: 8.19%

## Nc1ccn(C2OC(CO)C(O)C2(F)F)c(=O)n1 (stereo not drawn) + Cc1cnc(CNC(=O)c2c(=O)c3ccc(N4CCCN(C)CC4)nc3n3c2sc2ccccc23)cn1
Second compound 0.0316 µM
  IC50: < 31.6 nM
Second compound 0.1 µM
  IC50: < 31.6 nM
Second compound 0.316 µM
  IC50: < 31.6 nM
Second compound 1 µM
  IC50: < 31.6 nM
Second compound 3.16 µM
  IC50: < 31.6 nM
Second compound 10 µM
  IC50: < 31.6 nM
[1]
  viability, T/C: 10.5%
[2]
  viability, T/C: 5.6%
[3]
  viability, T/C: 5.15%
[4]
  viability, T/C: 4.7%
[5]
  viability, T/C: 4.99%
[6]
  viability, T/C: 4.44%
[7]
  viability, T/C: 12.7%
[8]
  viability, T/C: 4.99%
[9]
  viability, T/C: 8.19%
[10]
  viability, T/C: 6.35%
[11]
  viability, T/C: 5.18%
[12]
  viability, T/C: 3.96%
[13]
  viability, T/C: 11.5%
[14]
  viability, T/C: 5.16%
[15]
  viability, T/C: 5.92%
[16]
  viability, T/C: 5.56%
[17]
  viability, T/C: 4.85%
[18]
  viability, T/C: 4.62%
[19]
  viability, T/C: 11.1%
[20]
  viability, T/C: 7%
[21]
  viability, T/C: 6.75%
[22]
  viability, T/C: 6.61%
[23]
  viability, T/C: 4.42%
[24]
  viability, T/C: 4.28%
[25]
  viability, T/C: 6.61%
[26]
  viability, T/C: 7.28%
[27]
  viability, T/C: 6.54%
[28]
  viability, T/C: 5.77%
[29]
  viability, T/C: 5.25%
[30]
  viability, T/C: 3.96%
[31]
  viability, T/C: 9.97%
[32]
  viability, T/C: 6.38%
[33]
  viability, T/C: 5.25%
[34]
  viability, T/C: 7.22%
[35]
  viability, T/C: 5.43%
[36]
  viability, T/C: 3.66%

## O=c1[nH]cc(F)c(=O)[nH]1 + Cc1cnc(CNC(=O)c2c(=O)c3ccc(N4CCCN(C)CC4)nc3n3c2sc2ccccc23)cn1
Second compound 0.0316 µM
  IC50: 4520 nM
Second compound 0.1 µM
  IC50: < 31.6 nM
Second compound 0.316 µM
  IC50: < 31.6 nM
Second compound 1 µM
  IC50: < 31.6 nM
Second compound 3.16 µM
  IC50: < 31.6 nM
Second compound 10 µM
  IC50: < 31.6 nM
[1]
  viability, T/C: 69.8%
[2]
  viability, T/C: 66.3%
[3]
  viability, T/C: 51.5%
[4]
  viability, T/C: 66.9%
[5]
  viability, T/C: 63.7%
[6]
  viability, T/C: 20.2%
[7]
  viability, T/C: 39.9%
[8]
  viability, T/C: 38.9%
[9]
  viability, T/C: 41.9%
[10]
  viability, T/C: 36.1%
[11]
  viability, T/C: 35.7%
[12]
  viability, T/C: 17.7%
[13]
  viability, T/C: 27.9%
[14]
  viability, T/C: 23.6%
[15]
  viability, T/C: 29.5%
[16]
  viability, T/C: 25.2%
[17]
  viability, T/C: 25.8%
[18]
  viability, T/C: 15.1%
[19]
  viability, T/C: 15.6%
[20]
  viability, T/C: 15.3%
[21]
  viability, T/C: 17.3%
[22]
  viability, T/C: 19%
[23]
  viability, T/C: 20.4%
[24]
  viability, T/C: 9.16%
[25]
  viability, T/C: 11.3%
[26]
  viability, T/C: 15.5%
[27]
  viability, T/C: 14.1%
[28]
  viability, T/C: 9.51%
[29]
  viability, T/C: 12.9%
[30]
  viability, T/C: 7.27%
[31]
  viability, T/C: 11.2%
[32]
  viability, T/C: 8.66%
[33]
  viability, T/C: 10.8%
[34]
  viability, T/C: 9.81%
[35]
  viability, T/C: 9.32%
[36]
  viability, T/C: 5.96%

— PubChem BioAssay AID2060486 (Molecular Pharmacology Branch, DTP, NCI, 2025)
